The values below come from ChEMBL document CHEMBL3853293, “Part-1: Design, synthesis and biological evaluation of novel bromo-pyrimidine analogs as tyrosine kinase inhibitors” (Eur J Med Chem, 2016).

Structures are written as SMILES. pIC50: −log10 of the molar value. Where only a bound is given, the exact number is not on record here.

One data set concerns the target Bcr/Abl fusion protein (Homo sapiens, UniProt P00519). Kind of data set: Inhibition of BRC/ABL1 (unknown origin) after 40 mins by ADP-Glo assay. The format is protein assay. (ADP-Glo first removes unused ATP, then detects ADP through luciferase.)
A short description of data set [1]: Cytotoxicity against human HCT116 cells assessed as reduction in cell viability after 96 hrs by MTT assay. The conditions noted are these: HCT-116, 96 h. On the technique in general: Tetrazolium assays rely on reduction of a dye to a coloured formazan, in cell work by metabolically active cells.
Data set [2] can be described thus: Cytotoxicity against human A549 cells assessed as reduction in cell viability after 96 hrs by MTT assay. To be noted: A549, 96 h.
A short description of data set [3]: Cytotoxicity against human U937 cells assessed as reduction in cell viability after 96 hrs by MTT assay. The conditions noted are these: U-937, 96 h.
A short description of data set [4]: Cytotoxicity against human K562 cells assessed as reduction in cell viability after 96 hrs by MTT assay. To be noted: K562, 96 h.
Data set [5] in a line: Cytotoxicity against human L02 cells assessed as reduction in cell viability after 96 hrs by MTT assay. The data set is classed as toxicity, cell-based.

Chain of Bcr/Abl fusion protein (P00519 whole entry, the tested form may be a part): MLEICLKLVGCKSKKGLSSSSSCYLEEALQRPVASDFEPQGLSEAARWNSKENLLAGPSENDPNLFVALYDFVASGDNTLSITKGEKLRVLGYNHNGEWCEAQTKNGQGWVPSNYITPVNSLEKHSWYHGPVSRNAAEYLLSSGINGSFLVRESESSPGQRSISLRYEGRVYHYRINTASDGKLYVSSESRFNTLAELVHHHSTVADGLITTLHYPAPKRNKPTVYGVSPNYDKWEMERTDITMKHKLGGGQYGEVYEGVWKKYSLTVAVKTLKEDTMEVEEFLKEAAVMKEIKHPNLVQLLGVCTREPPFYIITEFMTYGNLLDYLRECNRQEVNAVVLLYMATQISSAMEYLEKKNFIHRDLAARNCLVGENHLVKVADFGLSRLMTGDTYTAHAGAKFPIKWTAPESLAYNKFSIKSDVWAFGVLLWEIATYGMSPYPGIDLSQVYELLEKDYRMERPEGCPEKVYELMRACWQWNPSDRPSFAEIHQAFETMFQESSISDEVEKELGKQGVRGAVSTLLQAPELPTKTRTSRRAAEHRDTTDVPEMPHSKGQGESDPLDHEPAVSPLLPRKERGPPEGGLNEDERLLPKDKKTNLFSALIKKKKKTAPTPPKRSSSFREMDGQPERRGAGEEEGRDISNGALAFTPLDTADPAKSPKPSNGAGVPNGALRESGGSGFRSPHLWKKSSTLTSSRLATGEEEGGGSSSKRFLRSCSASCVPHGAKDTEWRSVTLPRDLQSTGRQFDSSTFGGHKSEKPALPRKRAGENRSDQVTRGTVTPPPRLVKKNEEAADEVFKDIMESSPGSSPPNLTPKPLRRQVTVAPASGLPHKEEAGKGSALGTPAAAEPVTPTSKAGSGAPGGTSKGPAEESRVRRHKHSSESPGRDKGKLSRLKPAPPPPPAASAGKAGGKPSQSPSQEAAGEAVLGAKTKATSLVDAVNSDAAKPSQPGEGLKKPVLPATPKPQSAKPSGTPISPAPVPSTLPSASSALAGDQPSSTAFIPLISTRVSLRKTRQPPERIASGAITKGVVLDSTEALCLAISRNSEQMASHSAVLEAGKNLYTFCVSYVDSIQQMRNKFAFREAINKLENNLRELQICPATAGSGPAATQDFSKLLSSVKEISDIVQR
Chain of Bcr/Abl fusion protein (P11274 whole entry, further chain, the tested form may be a part): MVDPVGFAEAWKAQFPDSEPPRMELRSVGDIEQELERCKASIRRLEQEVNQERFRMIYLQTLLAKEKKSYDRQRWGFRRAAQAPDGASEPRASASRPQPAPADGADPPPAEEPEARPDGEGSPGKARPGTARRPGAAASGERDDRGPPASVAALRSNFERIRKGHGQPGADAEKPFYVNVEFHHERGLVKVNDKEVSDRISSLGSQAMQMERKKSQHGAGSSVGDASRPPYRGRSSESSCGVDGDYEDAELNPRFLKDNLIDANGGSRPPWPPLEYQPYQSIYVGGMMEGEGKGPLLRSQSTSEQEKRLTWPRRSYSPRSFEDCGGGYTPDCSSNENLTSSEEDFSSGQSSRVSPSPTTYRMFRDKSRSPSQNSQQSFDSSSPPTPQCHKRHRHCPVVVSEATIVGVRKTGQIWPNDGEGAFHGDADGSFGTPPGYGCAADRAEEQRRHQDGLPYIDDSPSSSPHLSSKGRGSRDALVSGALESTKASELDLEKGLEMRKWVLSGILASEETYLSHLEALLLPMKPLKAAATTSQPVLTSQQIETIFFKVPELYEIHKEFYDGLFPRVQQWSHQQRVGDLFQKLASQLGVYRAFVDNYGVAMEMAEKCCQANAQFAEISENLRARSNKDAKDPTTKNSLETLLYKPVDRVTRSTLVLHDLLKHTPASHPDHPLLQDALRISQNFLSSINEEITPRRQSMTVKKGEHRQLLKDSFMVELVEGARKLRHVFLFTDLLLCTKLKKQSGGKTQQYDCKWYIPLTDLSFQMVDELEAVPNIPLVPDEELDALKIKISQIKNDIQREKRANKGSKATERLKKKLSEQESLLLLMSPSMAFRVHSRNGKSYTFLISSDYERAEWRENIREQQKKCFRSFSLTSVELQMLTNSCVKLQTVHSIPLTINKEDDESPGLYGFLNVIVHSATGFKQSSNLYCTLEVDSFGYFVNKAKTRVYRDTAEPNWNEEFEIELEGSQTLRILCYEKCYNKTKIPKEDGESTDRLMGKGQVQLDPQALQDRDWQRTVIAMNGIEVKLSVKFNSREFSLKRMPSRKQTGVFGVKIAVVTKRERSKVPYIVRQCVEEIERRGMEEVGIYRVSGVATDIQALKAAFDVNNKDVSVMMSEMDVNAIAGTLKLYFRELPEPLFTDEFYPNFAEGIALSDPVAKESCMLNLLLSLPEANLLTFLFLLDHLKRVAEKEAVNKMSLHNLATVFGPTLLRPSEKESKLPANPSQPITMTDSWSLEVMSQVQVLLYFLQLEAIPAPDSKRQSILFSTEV

One may read the pIC50 as the IC50 on a negative log10 scale, so that one unit is a factor of ten. Regarding `O=C(c1cc(Cl)c(Cl)c(Cl)n1)N1CCN(c2nc(Cl)ncc2Br)CC1`, the negative-log IC50 (pIC50) against Bcr/Abl fusion protein was 5.84.
By IC50 is commonly meant the point on the concentration scale where inhibition reaches its midpoint. Turning to `O=S(=O)(c1ccc2ccccc2c1)N1CCN(c2nc(N3CCOCC3)ncc2Br)CC1`, the figures for the negative-log IC50 (pIC50) (in data set [1]; in data set [3]; at Bcr/Abl fusion protein) were 5.02, 4.82 and 6.36, respectively. The results for the IC50 in data set [2] and in data set [4] were 8.23 µg/mL and 10.3 µg/mL, respectively. For the same compound, in data set [5], the IC50 at 96 h was more than 40 µM.
Regarding `O=S(=O)(c1cc(C(F)(F)F)cc(C(F)(F)F)c1)N1CCN(c2nc(Cl)ncc2Br)CC1`, the negative-log IC50 (pIC50) against Bcr/Abl fusion protein is 5.65.
Turning to `CC(C)(C)c1ccc(S(=O)(=O)N2CCN(c3nc(N4CCOCC4)ncc3Br)CC2)cc1`, the pIC50 in data set [1] is 5.06; in data set [2], 4.91; in data set [3], 4.89; on Bcr/Abl fusion protein it was 5.94. Further, the IC50 in data set [4] came out at 9.09 µg/mL. In data set [5], the concentration for half-maximal inhibition (IC50) at 96 h is more than 40 µM.
`O=S(=O)(C1CC1)N1CCN(c2nc(Cl)ncc2Br)CC1`: the negative logarithm of the IC50 (pIC50) on Bcr/Abl fusion protein was less than 3.30.
Regarding `N#Cc1ccc(S(=O)(=O)N2CCN(c3nc(N4CCOCC4)ncc3Br)CC2)cc1`, the pIC50 in data set [1] is 5.08; in data set [2] it was 4.91; in data set [3], 4.91; at Bcr/Abl fusion protein, less than 3.30. Also, the IC50 in data set [4] is 10.5 µg/mL. The IC50 at 96 h in data set [5] was more than 40 µM.
On to `Cc1noc(C)c1S(=O)(=O)N1CCN(c2nc(N3CCOCC3)ncc2Br)CC1`, for which the pIC50 in data set [1] is 5.08; in data set [2], 4.98; in data set [3] it was 4.93; on Bcr/Abl fusion protein it was less than 3.30. Also, the half-inhibitory concentration (IC50) in data set [4] came to 9.45 µg/mL. In data set [5], the IC50 at 96 h was more than 40 µM.
Regarding `Cc1ccc(S(=O)(=O)N2CCN(c3nc(Cl)ncc3Br)CC2)cc1`, the pIC50 against Bcr/Abl fusion protein was 4.24.
Still for that read-out and setting: next, `O=S(=O)(c1ccc(F)cc1)N1CCN(c2nc(Cl)ncc2Br)CC1`: 3.91.
Regarding `O=S(=O)(c1ccc(C(F)(F)F)cc1)N1CCN(c2nc(N3CCOCC3)ncc2Br)CC1`, the 50% inhibitory concentration (IC50) is 4.32 µg/mL in data set [1], 6.25 µg/mL in data set [2], 7.54 µg/mL in data set [3] and 9.95 µg/mL in data set [4]. In addition, the IC50 at 96 h in data set [5] is more than 40 µM. The compound also had a negative-log IC50 (pIC50) at Bcr/Abl fusion protein of 7.72.
Regarding `O=C(c1ccc(C(F)(F)F)cc1)N1CCN(c2nc(N3CCOCC3)ncc2Br)CC1`, the IC50 is 4.45 µg/mL in data set [1], 6.44 µg/mL in data set [2], 9.88 µg/mL in data set [3] and 9.17 µg/mL in data set [4]. For the same compound, the half-maximal inhibitory concentration (IC50) at 96 h in data set [5] is more than 40 µM. The same compound showed a negative-log IC50 (pIC50) against Bcr/Abl fusion protein of 7.62.
In the case of `O=C(c1c(F)cccc1F)N1CCN(c2nc(Cl)ncc2Br)CC1`, the 50% inhibitory concentration (IC50) in data set [1] is 4.97 µg/mL; in data set [4], 10.2 µg/mL. Moreover, the negative logarithm of the IC50 (pIC50) in data set [2] is 4.90; in data set [3], 4.91; on Bcr/Abl fusion protein, 5.58. In data set [5], the IC50 at 96 h is more than 40 µM.
The compound `CCCS(=O)(=O)N1CCN(c2nc(Cl)ncc2Br)CC1` had a negative logarithm of the IC50 (pIC50) at Bcr/Abl fusion protein of less than 3.30.
Regarding `CS(=O)(=O)N1CCN(c2nc(N3CCOCC3)ncc2Br)CC1`, the negative-log IC50 (pIC50) in data set [1] was 5.09; in data set [2], 5.01; in data set [3], 4.94; in data set [4], 4.92. Moreover, the IC50 at 96 h in data set [5] is more than 40 µM.
The corresponding values for `Cc1nc(Nc2ncc(C(=O)Nc3c(C)cccc3Cl)s2)cc(N2CCN(CCO)CC2)n1` [DASATINIB] are 5.28, 5.08, 4.99, 4.92 and more than 40 µM.
As for `O=S(=O)(C1CC1)N1CCN(c2nc(N3CCOCC3)ncc2Br)CC1`, the negative logarithm of the IC50 (pIC50) in data set [1] was 5.09; in data set [2] it was 4.92; in data set [3] it was 4.92; at Bcr/Abl fusion protein, 6.66. The IC50 in data set [4] came to 9.12 µg/mL. Further, the half-inhibitory concentration (IC50) at 96 h in data set [5] was more than 40 µM.
As to `Cc1ccc(S(=O)(=O)N2CCN(c3nc(N4CCOCC4)ncc3Br)CC2)c(C)c1`, the negative logarithm of the IC50 (pIC50) in data set [1] was 5.07; in data set [2] it was 4.95; in data set [3] it was 4.89; against Bcr/Abl fusion protein it was 5.77. Moreover, in data set [4], the concentration for half-maximal inhibition (IC50) turned out to be 9.09 µg/mL. Besides, the half-maximal inhibitory concentration (IC50) at 96 h in data set [5] is more than 40 µM.
`O=S(=O)(c1ccc(-c2ccccc2)cc1)N1CCN(c2nc(N3CCOCC3)ncc2Br)CC1`: the negative logarithm of the IC50 (pIC50) in data set [1] is 5.04; in data set [2], 5.00; in data set [3], 4.95; against Bcr/Abl fusion protein it was 6.49. Further, the 50% inhibitory concentration (IC50) in data set [4] was determined as 9.32 µg/mL. In addition, in data set [5], the concentration for half-maximal inhibition (IC50) at 96 h is more than 40 µM.
With `O=C(c1ccc(Cl)cc1[N+](=O)[O-])N1CCN(c2nc(N3CCOCC3)ncc2Br)CC1`, the pIC50 is 5.19 in data set [1]; 5.01 in data set [2]; 4.88 in data set [3]; 4.88 in data set [4]; less than 3.30 at Bcr/Abl fusion protein. Besides, the concentration for half-maximal inhibition (IC50) at 96 h in data set [5] was more than 40 µM.
As to `O=S(=O)(c1cc(Cl)sc1Cl)N1CCN(c2nc(N3CCOCC3)ncc2Br)CC1`, the pIC50 in data set [1] is 5.03; in data set [2], 5.02; in data set [3], 4.87; on Bcr/Abl fusion protein it was less than 3.30. The IC50 in data set [4] was determined as 10.1 µg/mL. Moreover, in data set [5], the IC50 at 96 h is more than 40 µM.
As to `O=C(c1ccc(C(F)(F)F)cc1)N1CCN(c2nc(Cl)ncc2Br)CC1`, the half-inhibitory concentration (IC50) came out at 4.92 µg/mL in data set [1], 8.23 µg/mL in data set [2], 7.12 µg/mL in data set [3] and 10.3 µg/mL in data set [4]. In addition, in data set [5], the concentration for half-maximal inhibition (IC50) at 96 h was more than 40 µM. The same compound showed a pIC50 on Bcr/Abl fusion protein of 7.72.
`O=S(=O)(c1ccc(-c2ccccc2)cc1)N1CCN(c2nc(Cl)ncc2Br)CC1` had a pIC50 at Bcr/Abl fusion protein of 6.19.
As to `O=S(=O)(c1ccc(F)cc1)N1CCN(c2nc(N3CCOCC3)ncc2Br)CC1`, the pIC50 is 5.09 in data set [1], 5.03 in data set [2], 4.95 in data set [3] and 5.34 against Bcr/Abl fusion protein. Besides, the IC50 in data set [4] amounted to 9.32 µg/mL. In data set [5], the IC50 at 96 h is more than 40 µM.
On to `O=C(c1ccc(F)cc1)N1CCN(c2nc(Cl)ncc2Br)CC1`, for which the pIC50 was 5.09 in data set [1] and 7.72 against Bcr/Abl fusion protein. The IC50 in data set [2] stood at 7.34 µg/mL; in data set [3], 9.12 µg/mL; in data set [4], 8.82 µg/mL. In addition, in data set [5], the half-inhibitory concentration (IC50) at 96 h is more than 40 µM.
For `O=[N+]([O-])c1cc(C(F)(F)F)ccc1S(=O)(=O)N1CCN(c2nc(N3CCOCC3)ncc2Br)CC1`, the half-inhibitory concentration (IC50) in data set [1] came to 4.02 µg/mL; in data set [2] it was 6.65 µg/mL; in data set [3], 7.14 µg/mL; in data set [4] it was 9.65 µg/mL. Besides, the IC50 at 96 h in data set [5] was more than 40 µM. Further, on Bcr/Abl fusion protein, the pIC50 is 7.69.
Turning to `O=[N+]([O-])c1cc(C(F)(F)F)ccc1S(=O)(=O)N1CCN(c2nc(Cl)ncc2Br)CC1`, on Bcr/Abl fusion protein, the negative logarithm of the IC50 (pIC50) is 7.65.
With `O=C(c1cc(Cl)ccc1Cl)N1CCN(c2nc(Cl)ncc2Br)CC1`, the negative-log IC50 (pIC50) in data set [1] is 5.08; in data set [2], 4.98; in data set [3], 4.95; at Bcr/Abl fusion protein, 5.64. Further, the IC50 in data set [4] was determined as 9.22 µg/mL. Besides, the half-maximal inhibitory concentration (IC50) at 96 h in data set [5] was more than 40 µM.
Take `COC(=O)NC(C(=O)N1CCN(c2nc(Cl)ncc2Br)CC1)C(C)C` (stereo not drawn): at Bcr/Abl fusion protein, the negative-log IC50 (pIC50) was 6.41.
As for `O=C(c1c(F)cccc1F)N1CCN(c2nc(N3CCOCC3)ncc2Br)CC1`, the negative-log IC50 (pIC50) in data set [1] is 5.25; in data set [3], 4.88; against Bcr/Abl fusion protein it was 6.05. The half-inhibitory concentration (IC50) in data set [2] is 7.17 µg/mL; in data set [4], 11.2 µg/mL. Besides, in data set [5], the half-maximal inhibitory concentration (IC50) at 96 h is more than 40 µM.
At Bcr/Abl fusion protein, `Cc1noc(C)c1S(=O)(=O)N1CCN(c2nc(Cl)ncc2Br)CC1` had a pIC50 of 6.25.
On the same count and under the same terms, next, `CS(=O)(=O)N1CCN(c2nc(Cl)ncc2Br)CC1`: 6.59.
For `O=C(c1ccc(F)cc1)N1CCN(c2nc(N3CCOCC3)ncc2Br)CC1`, the IC50 stood at 4.56 µg/mL in data set [1], 9.89 µg/mL in data set [3] and 9.45 µg/mL in data set [4]. Besides, the pIC50 in data set [2] is 5.06; against Bcr/Abl fusion protein it was 7.62. Also, the IC50 at 96 h in data set [5] is more than 40 µM.
As for `O=C(c1cc(I)ccc1Cl)N1CCN(c2nc(Cl)ncc2Br)CC1`, the pIC50 is 5.19 in data set [1], 4.91 in data set [2], 4.91 in data set [3] and 4.79 at Bcr/Abl fusion protein. Further, the IC50 in data set [4] came to 8.67 µg/mL. Also, in data set [5], the half-maximal inhibitory concentration (IC50) at 96 h was more than 40 µM.
As to `Cc1ccc(S(=O)(=O)N2CCN(c3nc(N4CCOCC4)ncc3Br)CC2)cc1`, the pIC50 in data set [1] is 5.12; in data set [2], 5.03; in data set [3], 4.98; against Bcr/Abl fusion protein, 5.70. Moreover, the concentration for half-maximal inhibition (IC50) in data set [4] is 10.3 µg/mL. In addition, the IC50 at 96 h in data set [5] was more than 40 µM.
Take `O=C(c1ccc(Cl)cc1[N+](=O)[O-])N1CCN(c2nc(Cl)ncc2Br)CC1`: the pIC50 in data set [1] is 5.13; in data set [2], 4.92; in data set [3] it was 4.84; at Bcr/Abl fusion protein, 5.59. The concentration for half-maximal inhibition (IC50) in data set [4] is 10.2 µg/mL. For the same compound, in data set [5], the concentration for half-maximal inhibition (IC50) at 96 h is more than 40 µM.
